Test results from the supplement of paper PMC10949913.

Tests used:
Assay in all cases: area under concentration-response curve (viability) (AUC (a.u.)); higher = less active
Conditions in all cases: 48 h
[1] = test system: NCI-H295R
Procedure, shortened: (§1)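 Library compounds were dispensed at 11 concentrations (23 nL each) onto three adrenocortical carcinoma cell lines in 1,536-well plates. Luminescence was recorded after 48 h using CellTiter-Glo, and signals were normalised per plate to vehicle and empty-well controls. Fitted concentration-response curves of inhibitory or non-responding classes only supplied the AC50 and area under the curve.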

[2] = test system: CU-ACC1
Procedure, shortened: as §1

[3] = test system: CU-ACC2
Procedure, shortened: as §1

| SMILES | area under concentration-response curve [1] | area under concentration-response curve [2] | area under concentration-response curve [3] |
| --- | --- | --- | --- |
| CCCCCCNC(=O)N1\C=C(F)/C(=O)NC1=O | 589 | 513 | 633 |
| Cc1n[nH]c2ncc(C(=O)N3CCC[C@H]3c3ccc(Cl)cc3)cc12 | 503 | 414 | 540 |
| Cc1ccc(-c2nc(N)nc3c2nnn3Cc2cccc(CO[C@H]3CCOC3)n2)o1 | 561 | 520 | 569 |
| O=C1NNc2nc(CN3Cc4ccccc4C3)nc3cccc1c23 | 526 | 537 | 600 |
| C[C@@H]1CC2=C(C=C3OCOC3=C2)C(=N\N1C(C)=O)/C4=CC=C(N)C=C4 | 406 | 394 | 398 |
| COc1ccc(CCN2CCN(CCCc3ccccc3)CC2)cc1OC | 562 | 541 | 627 |
| COc1cc2ncnc(Nc3ccc(O)c(Br)c3)c2cc1OC | 528 | 479 | 602 |
| N/C(=N\OCC(O)CN1CCCCC1)c1cccnc1 (stereo unspecified) | 455 | 415 | 447 |
| O=C(CCc1ccc(O)cc1)c1c(O)cc(O)cc1O | 585 | 531 | 653 |
| CC(=O)[C@H]1CC[C@H]2[C@@H]3C/C=C4/C[C@@H](O)CC[C@]4(C)[C@H]3CC[C@]12C | 530 | 517 | 627 |
| COc1cc(NC(=O)c2ccc(-c3ccc(Cl)cc3)o2)cc(OC)c1 | 536 | 469 | 562 |
| Nc1ccc([S+](N)(=O)[O-])cc1 | 409 | 417 | 415 |
| CN1CCN(C)C(=O)C1C2=CC=C(N/C3=N/C(=C\N(C)C3=O)C4=C(C)C(=CC=C4)NC(=O)C5=CC6=C(CCCC6)S5)C=C2 (stereo unspecified) | 580 | 528 | 612 |
| CC(=O)O[C@H]1C[C@@H]2CC[C@@H]3[C@H](CC[C@@]4(C)[C@H]3C[C@H]([N+]3(C)CCCCC3)[C@@H]4OC(C)=O)[C@@]2(C)C[C@@H]1N1CCCCC1.[Br-] | 610 | 562 | 632 |
| O=C(c1c(F)ccc(N[S+](=O)([O-])N2CC[C@@H](F)C2)c1F)c1c[nH]c2ncc(-c3cnc(C4CC4)nc3)cc12 | 474 | 470 | 574 |
| O[C@H](C[C@H]1c2c(F)cccc2-c2cncn21)[C@H]1CC[C@H](O)CC1 | 536 | 553 | 616 |
| NC1CCC(N[C@@H]2C[C@H]2c2ccccc2)CC1 (stereo partly specified) | 458 | 409 | 487 |
| CC(C)NCC(O)c1ccc(O)c(O)c1 (stereo unspecified) | 502 | 487 | 548 |
| NC\1=N\C(=O)N(\C=C1)[C@@H]2CS[C@H](CO)O2 | 569 | 534 | 612 |

| SMILES | area under concentration-response curve [1] | area under concentration-response curve [2] | area under concentration-response curve [3] |
| --- | --- | --- | --- |
| OC[C@H]1OC(O)C[C@@H](O)[C@@H]1O (stereo partly specified) | 607 | 562 | 694 |
| CN(C)NC(=O)CCC(=O)O | 397 | 405 | 410 |
| OC[C@H]1O[C@@H]2[C@@H](OC\3=N\C(=N)\C=C/[N@@]23)[C@@H]1O | 472 | 488 | 504 |
| COC1=CC=C(C=C1)/C2=C(O)/C(=O)C3=C(O)C=C(O)C(=C3O2)CC=C(C)C | 416 | 415 | 388 |
| Cc1ccsc1C(=CCCN1CCC[C@@H](C(=O)O)C1)c1sccc1C | 541 | 488 | 593 |
| Cc1nc(-c2cccnc2)sc1C(=O)Nc1ccccc1-c1cn2c(CN3CCOCC3)csc2n1 | 504 | 454 | 456 |
| Cc1cn(-c2cc(NC(=O)c3ccc(C)c(Nc4nccc(-c5cccnc5)n4)c3)cc(C(F)(F)F)c2)cn1 | 417 | 438 | 506 |
| CC(C)(C)C(=O)Oc1ccc2c(c1)nc(NC(=O)c1cccc([N+](=O)[O-])c1)n2CCCO | 525 | 506 | 584 |
| O=C([O-])C(O)Cc1ccc(O)c(O)c1 (stereo unspecified) | 553 | 460 | 589 |
| CN1C(=O)\C(=C/C(=C1/NC2=C(F)C=C(I)C=C2)C(=O)NOCCO)C | 550 | 335 | 519 |
| CN1C[C@@H]2c3ccccc3Oc3ccc(Cl)cc3[C@H]2C1 | 554 | 553 | 525 |
| C[C@@H](c1ncncc1F)[C@](O)(Cn1cncn1)c1ccc(F)cc1F | 475 | 409 | 513 |
| NCC/1=C/NC(=S)N1[C@H]2CCC3=C(F)C=C(F)C=C3C2 | 550 | 495 | 547 |
| CCN(CC)CCN1C(=O)\C(=N/C2=CC=CC=C12)CC3=CC=C(OC)C=C3 | 501 | 472 | 526 |
| COC(=O)N(C)c1c(N)nc(-c2nn(Cc3ccccc3F)c3ncccc23)nc1N | 488 | 488 | 586 |
| CN(C(=O)c1ccc(F)cc1C(F)(F)F)C1CCN(c2nnc(-c3ccnn3C)c3ccccc23)CC1 | 566 | 495 | 601 |
| CC(C)(C)NCC(O)c1ccc(O)c(CO)c1 (stereo unspecified) | 567 | 504 | 598 |
| NC(=O)OCC(COC(N)=O)c1ccccc1 | 460 | 497 | 554 |
